What was measured:
Kv11.1 (KCNH2, hERG) [1] = target: T1, Kv11.1 (KCNH2, hERG) (Homo sapiens, UniProt Q12809); experiment: in vitro
[2] = target: T2, Voltage-gated inwardly rectifying potassium channel KCNH2 (Homo sapiens, UniProt Q12809)
Kv11.1 (KCNH2, hERG) [3] = target: T1, Kv11.1 (KCNH2, hERG); experiment: in vitro; remark: listed apart in the source
[4] = target: T2, Voltage-gated inwardly rectifying potassium channel KCNH2; remark: listed apart in the source
Kv11.1 (KCNH2, hERG) [5] = target: T1, Kv11.1 (KCNH2, hERG); experiment: in vitro; remark: listed apart in the source
[6] = target: T2, Voltage-gated inwardly rectifying potassium channel KCNH2; remark: listed apart in the source
Description: Inhibition of human Kv11.1 expressed in HEK293 cells assessed as inhibition of channel tail current at holding potential -80 mV by whole cell voltage clamp assay

T2 sequence (Q12809 whole entry): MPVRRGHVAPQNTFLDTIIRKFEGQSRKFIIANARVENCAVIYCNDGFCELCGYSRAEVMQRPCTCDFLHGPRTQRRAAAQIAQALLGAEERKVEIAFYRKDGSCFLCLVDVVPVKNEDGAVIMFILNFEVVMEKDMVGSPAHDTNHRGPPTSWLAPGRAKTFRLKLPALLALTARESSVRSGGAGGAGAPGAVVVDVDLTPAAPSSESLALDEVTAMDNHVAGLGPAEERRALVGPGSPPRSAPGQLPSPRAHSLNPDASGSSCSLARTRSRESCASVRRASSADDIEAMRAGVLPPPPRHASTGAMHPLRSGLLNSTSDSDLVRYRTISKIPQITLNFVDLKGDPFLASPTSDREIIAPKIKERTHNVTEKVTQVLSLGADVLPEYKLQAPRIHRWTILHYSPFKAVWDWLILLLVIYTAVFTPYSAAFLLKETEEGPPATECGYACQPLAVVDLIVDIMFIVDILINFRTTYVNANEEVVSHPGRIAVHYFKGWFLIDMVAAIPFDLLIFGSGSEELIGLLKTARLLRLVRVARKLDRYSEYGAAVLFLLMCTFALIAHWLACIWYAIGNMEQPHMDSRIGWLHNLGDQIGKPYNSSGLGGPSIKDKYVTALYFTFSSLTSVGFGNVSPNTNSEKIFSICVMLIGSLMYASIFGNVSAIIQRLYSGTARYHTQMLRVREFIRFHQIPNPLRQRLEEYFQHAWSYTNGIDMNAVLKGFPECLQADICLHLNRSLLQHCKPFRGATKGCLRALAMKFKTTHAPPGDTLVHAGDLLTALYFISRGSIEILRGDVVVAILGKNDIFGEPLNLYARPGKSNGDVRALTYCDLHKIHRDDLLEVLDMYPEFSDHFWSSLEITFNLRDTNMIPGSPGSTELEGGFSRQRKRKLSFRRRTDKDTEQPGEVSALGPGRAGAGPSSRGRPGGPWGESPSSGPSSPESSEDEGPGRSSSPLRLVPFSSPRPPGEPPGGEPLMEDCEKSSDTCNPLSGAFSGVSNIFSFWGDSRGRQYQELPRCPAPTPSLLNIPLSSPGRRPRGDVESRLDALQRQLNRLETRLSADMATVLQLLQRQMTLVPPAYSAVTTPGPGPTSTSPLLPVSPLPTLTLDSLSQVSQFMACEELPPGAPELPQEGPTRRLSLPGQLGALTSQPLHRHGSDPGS
T1 sequence (Q12809 whole entry): as above

Structure (SMILES)	residence time (Kv11.1 (KCNH2, hERG) [1]; hek293)	Kd [2]	kon (Kv11.1 (KCNH2, hERG) [3]; hek293)	Ki [4]	koff (Kv11.1 (KCNH2, hERG) [5]; hek293)	residence time (Kv11.1 (KCNH2, hERG) [1]; hek293, probe [3H]dofetilide)	kon (Kv11.1 (KCNH2, hERG) [3]; hek293, probe [3H]dofetilide)	koff (Kv11.1 (KCNH2, hERG) [5]; hek293, probe [3H]dofetilide)	IC50 [6]
CCCCCCCCc1cccc(CCCCCCCC)n1	19 min	191000 nM	4.67 M⁻¹ s⁻¹	36900 nM	0.000867 s⁻¹	–	–	–	–
CCCCCCCCCCCCc1cccc(CCCCCCCCCCCC)[n+]1C	–	153 nM	–	108 nM	–	36 min	3000 M⁻¹ s⁻¹	0.000467 s⁻¹	–
C[n+]1c(C#Cc2ccc(-c3ccc(O)cc3)cc2)cccc1C#Cc1ccc(-c2ccc(O)cc2)cc1	–	103 nM	–	153 nM	–	19 min	8500 M⁻¹ s⁻¹	0.000883 s⁻¹	–
Cc1ccc(-c2ccc(C#Cc3cccc(C#Cc4ccc(-c5ccc(C)cc5)cc4)[n+]3C)cc2)cc1	–	440 nM	–	303 nM	–	30 min	1430 M⁻¹ s⁻¹	0.00055 s⁻¹	–
CCCCCCCc1cccc(CCCCCCC)[n+]1C	–	0.44 nM	–	0.28 nM	–	10 min	4.17e+06 M⁻¹ s⁻¹	0.00167 s⁻¹	–
CCCCCCC[N+](CC)(CC)CC#Cc1ccc(Cl)cc1	7.7 min	1.2 nM	2.83e+06 M⁻¹ s⁻¹	1.8 nM	0.00217 s⁻¹	–	–	–	–
O=C(c1ccccc1)N1CCN(CCc2ccccc2)CC1	–	1810 nM	–	5420 nM	–	2.2 min	4500 M⁻¹ s⁻¹	0.00767 s⁻¹	–
CCN(CCOc1ccc([N+](=O)[O-])cc1)CCc1ccc([N+](=O)[O-])cc1	–	3 nM	–	4.2 nM	–	3.8 min	2.5e+06 M⁻¹ s⁻¹	0.00433 s⁻¹	–
O=[N+]([O-])c1ccc(CCNCCOc2ccc([N+](=O)[O-])cc2)cc1	3.7 min	53 nM	90000 M⁻¹ s⁻¹	47 nM	0.0045 s⁻¹	–	–	–	–
CCCN(CC)CC#Cc1ccc(C)cc1	–	637 nM	–	1200 nM	–	6.7 min	5170 M⁻¹ s⁻¹	0.0025 s⁻¹	–
CCCCCCCCCCc1cccc(CCCCCCCCCC)[n+]1C	16 min	37 nM	28300 M⁻¹ s⁻¹	17 nM	0.00107 s⁻¹	–	–	–	–
C[n+]1c(C#Cc2ccc(-c3ccccc3)cc2)cccc1C#Cc1ccc(-c2ccccc2)cc1	105 min	132 nM	1250 M⁻¹ s⁻¹	86 nM	0.000158 s⁻¹	–	–	–	107 nM
Cc1ccccc1-c1ccc(C#Cc2cccc(C#Cc3ccc(-c4ccccc4C)cc3)[n+]2C)cc1	14 min	203 nM	5830 M⁻¹ s⁻¹	577 nM	0.00118 s⁻¹	–	–	–	–
CCCCCCCCCc1cccc(CCCCCCCCC)[n+]1C	–	4 nM	–	3.4 nM	–	14 min	300000 M⁻¹ s⁻¹	0.00115 s⁻¹	–
C(#Cc1cccc(C#Cc2ccc(-c3ccccc3)cc2)n1)c1ccc(-c2ccccc2)cc1	–	–	–	> 100000 nM	–	–	–	–	–
O=C(N(CCOc1ccc([N+](=O)[O-])cc1)CCc1ccc([N+](=O)[O-])cc1)C(F)(F)F	1.6 min	247 nM	41700 M⁻¹ s⁻¹	355 nM	0.0102 s⁻¹	–	–	–	–
C[n+]1c(C#Cc2ccc(-c3cccc(Cl)c3)cc2)cccc1C#Cc1ccc(-c2cccc(Cl)c2)cc1	91 min	135 nM	1380 M⁻¹ s⁻¹	139 nM	0.000183 s⁻¹	–	–	–	–
C[n+]1c(C#Cc2ccc(-c3ccc(Cl)cc3)cc2)cccc1C#Cc1ccc(-c2ccc(Cl)cc2)cc1	63 min	100 nM	2670 M⁻¹ s⁻¹	71 nM	0.000267 s⁻¹	–	–	–	–
CN(CCCCOc1ccc([N+](=O)[O-])cc1)CCc1ccc([N+](=O)[O-])cc1	3.8 min	0.73 nM	1.07e+07 M⁻¹ s⁻¹	1.6 nM	0.00433 s⁻¹	–	–	–	–
CN(CCOc1ccc(Cl)c(Cl)c1)CCc1ccc(Cl)c(Cl)c1	–	5810 nM	–	5570 nM	–	5.3 min	1030 M⁻¹ s⁻¹	0.00317 s⁻¹	–
COc1ccc(CCN(C)CCOc2ccccc2)cc1	–	591 nM	–	944 nM	–	3.3 min	9330 M⁻¹ s⁻¹	0.005 s⁻¹	–
CCCCCCc1cccc(CCCCCC)[n+]1C	4.3 min	12 nM	333000 M⁻¹ s⁻¹	12 nM	0.00383 s⁻¹	–	–	–	–
CC(=O)N(CCOc1ccc([N+](=O)[O-])cc1)CCc1ccc([N+](=O)[O-])cc1	–	132 nM	–	251 nM	–	0.56 min	163000 M⁻¹ s⁻¹	0.03 s⁻¹	–
COc1cccc(-c2ccc(C#Cc3cccc(C#Cc4ccc(-c5cccc(OC)c5)cc4)[n+]3C)cc2)c1	21 min	125 nM	6170 M⁻¹ s⁻¹	176 nM	0.000783 s⁻¹	–	–	–	–
CCCCCCCCCCC#Cc1cccc(C#CCCCCCCCCCC)[n+]1C	–	4260 nM	–	1180 nM	–	8.3 min	550 M⁻¹ s⁻¹	0.002 s⁻¹	–
N#CCN(CCOc1ccc([N+](=O)[O-])cc1)CCc1ccc([N+](=O)[O-])cc1	2.5 min	99 nM	76700 M⁻¹ s⁻¹	203 nM	0.00667 s⁻¹	–	–	–	–
C[N+]1(CCc2ccccc2)CCC(C(=O)c2ccc(Cl)cc2)CC1 (configuration not stated)	2.9 min	18 nM	800000 M⁻¹ s⁻¹	48 nM	0.00583 s⁻¹	–	–	–	–
C[n+]1c(CCc2ccc(-c3ccccc3)cc2)cccc1CCc1ccc(-c2ccccc2)cc1	–	60 nM	–	63 nM	–	10 min	26700 M⁻¹ s⁻¹	0.00163 s⁻¹	–
CN(CCOc1ccc([N+](=O)[O-])cc1)CCc1ccc([N+](=O)[O-])cc1	1.2 min	20 nM	683000 M⁻¹ s⁻¹	24 nM	0.0137 s⁻¹	–	–	–	–
O=C(c1ccc(Cl)cc1)C1CCN(CCc2ccc(Cl)c(Cl)c2)CC1	2.6 min	36 nM	350000 M⁻¹ s⁻¹	54 nM	0.0065 s⁻¹	–	–	–	–

From ChEMBL document CHEMBL3588758, “Structure-Affinity Relationships (SARs) and Structure-Kinetics Relationships (SKRs) of Kv11.1 Blockers” (J Med Chem, 2015)
